The data set is described as follows: Zeta potential profile at varying pH of amphoteric liposomes (zero point = isoelectric point). Format: physicochemical. Particulars: liposomes of 2 mg lipid and 10 mg DMPC; buffer 10 mM Kac, 10 mM HEPES, 150 mM NaCl; extruded 200 nm; value is a pH. The method, then:
FIG. 1 is a graph showing a profile of the zeta potential in mV at varying pH values for the amphoteric liposomes prepared according to Example 4.
2 mg of the corresponding lipid and 10 mg of DMPC are dissolved in 4 ml of chloroform/methanol (1:1 v/v) and dried completely in a rotary evaporator. The lipid film is hydrated with 4.3 ml of buffer (10 mM Kac, 10 mM HEPES, 150 mM NaCl, pH 7.5) at a lipid concentration of 5 mM using ultrasonic treatment for 5 minutes. Finally, the suspension is frozen and, following thawing, subjected to multiple extrusions (Avestine LiposoFast, polycarbonate filter, pore width 200 nm). The profile of the zeta potential in mV at varying pH values is illustrated in FIG. 1. The zero point indicates the pH value at which the liposome is discharged. This pH corresponds to the isoelectric point of the lipid and is 4.5 for #8, 5.2 for #34, 5.7 for #25.

`CCCCCCCC/C=C\CCCCCCCC(=O)OCC(CN(CCC(=O)O)CCC(=O)O)OC(=O)CCCCCCC/C=C\CCCCCCCC` (centres unmarked) [#8, N,N-bis(propanoic acid-3-yl)-N-(2,3-dioleoyloxypropyl)amine]: the “isoelectric point of the lipid (pH value at which the liposome is discharged, zero point of zeta potential)” value turned out to be 4.5.

For `CCCC(=O)OC(COC(=O)CC)OP(=O)(O)OCCNCCC(=O)NC(Cc1c[nH]cn1)C(=O)O` (centres unmarked) [#25, phosphatidyl glycerylcarnosine], the “isoelectric point of the lipid (pH value at which the liposome is discharged, zero point of zeta potential)” value amounted to 5.7.
